For 7 compounds, IC50 and GI50 results are on record in US20070173488A1, “Pyrazolothiazole Protein Kinase Modulators” (SGX Pharmaceuticals, Inc., priority 2005, published 2007).

One assay has as its system GTL16 cells. Put plainly: 96-well XTT cell survival assay (GTL16 cells). It counts as cell-based. As to conditions: Homo sapiens, GTL 16, 72 hours. The procedure:
GTL16 cells were maintained in DMEM Medium supplemented with 10% fetal bovine serum (FBS) 2 mM L-Glutamine and 100 units penicillin/100 μg streptomycin, at 37° C. in 5% CO2.
(§1) Compounds were tested in the following assays in duplicate.
96-well XTT assay (GLT16 cells): One day prior to assay the growth media was aspirated off and assay media was added to cells. On the day of the assay, the cells were grown in assay media containing various concentrations of compounds (duplicates) on a 96-well flat bottom plate for 72 hours at 37° C. in 5% CO2. The starting cell number was 5000 cells per well and volume was 120 μl. At the end of the 72-hour incubation, 40 μl of XTT labeling mixture (50:1 solution of sodium 3′-[1-(phenylaminocarbonyl)-3,4-tetrazolium]-bis (4-methoxy-6-nitro) benzene sulfonic acid hydrate and Electron-coupling reagent: PMS (N-methyl dibenzopyrazine methyl sulfate) were added to each well of the plate. After an additional 5 hours of incubation at 37° C., the absorbance reading at 450 nm with a background correction of 650 nm was measured with a spectrophotometer.

For the next assay, the target named is T1, T315I Ba/F3 (Homo sapiens, UniProt P00519, T315I, cells depend on it, form not given).
T1 construct: The candidate is BCR (P11274) N-terminal part, as in Bcr-Abl p210 or p185
Put plainly: 96-well XTT cell survival assay (Ba/F3 cells). The format is cell-based. Particulars: 72 hours, read-out: T315I Ba/F3 XTT IC50. The protocol:
Ba/F3 cells were maintained in RPMI 1640 supplemented with 10% FBS, penicillin/streptomycin and 5 ng/ml recombinant mouse IL-3.
as §1
96-well XTT assay (Ba/F3 cells): Cells were grown in growth media containing various concentrations of compounds (duplicates) on a 96-well plate for 72 hours at 37° C. The starting cell number was 5000-8000 cells per well and volume was 120 μl. At the end of the 72-hour incubation, 40 μl of XTT labeling mixture (50:1 solution of sodium 3′-[1-(phenylamino-carbonyl)-3,4-tetrazolium]-bis (4-methoxy-6-nitro) benzene sulfonic acid hydrate and Electron-coupling reagent: PMS (N-methyl dibenzopyrazine methyl sulfate) were added to each well of the plate. After an additional 2-6 hours of incubation at 37° C., the absorbance reading at 405 nm with background correction at 650 nm was measured with a spectrophotometer.
(In general: Tetrazolium dyes change colour on reduction, which living cells bring about.)

Molecules are shown by their SMILES.

What is called IC50 is the concentration at which inhibition is half-maximal. A higher IC50 goes with weaker potency. In the case of `O=C(Nc1cc[nH]n1)Nc1nc2[nH]nc(-n3cncc3-c3ccccc3Cl)c2s1` [1-{3-[5-(2-Chloro-phenyl)-imidazol-1-yl]-1H-pyrazolo[3,4-d]thiazol-5-yl}-3-(1H-pyrazol-3-yl)-urea], the IC50 in the assay on GTL16 cells is < 0.1 µM.
In turn, `O=C(Nc1nc2[nH]nc(-n3cncc3-c3ccccc3)c2s1)C1CC1` [Cyclopropanecarboxylic acid [3-(5-phenyl-imidazol-1-yl)-1H-pyrazolo[3,4-d]thiazol-5-yl]-amide] gave an IC50 in the assay on GTL16 cells of 1 to 10 µM. In addition, on T315I Ba/F3, the GI50 lay within 0.1 to 1 µM.
In the case of `O=C(Nc1nc2[nH]nc(-n3cncc3-c3ccccn3)c2s1)C1CC1` [Cyclopropanecarboxylic acid [3-(5-pyridin-2-yl-imidazol-1-yl)-1H-pyrazolo[3,4-d]thiazol-5-yl]-amide], the GI50 on T315I Ba/F3 lay in the range of 1 to 10 µM.
As to `O=C(Nc1nc2[nH]nc(-n3cncc3-c3c(Cl)ccc(Cl)c3Cl)c2s1)C1CC1` [Cyclopropanecarboxylic acid {3-[5-(2,3,6-trichloro-phenyl)-imidazol-1-yl]-1H-pyrazolo[3,4-d]thiazol-5-yl}-amide], in the assay on GTL16 cells, the IC50 lay within 0.1 to 1 µM. For the same compound, at T315I Ba/F3, the GI50 was 0.1 to 1 µM.
The compound `O=C(Nc1nc2[nH]nc(-n3cncc3-c3cccc(F)c3F)c2s1)C1CC1` [Cyclopropanecarboxylic acid {3-[5-(2,3-difluoro-phenyl)-imidazol-1-yl]-1H-pyrazolo[3,4-d]thiazol-5-yl}-amide] gave an IC50 in the assay with GTL16 cells of 1 to 10 µM. For the same compound, the GI50 on T315I Ba/F3 is 0.1 to 1 µM.
In the case of `O=C(Nc1nc2[nH]nc(-n3cncc3-c3c(Cl)cccc3Cl)c2s1)C1CC1` [Cyclopropanecarboxylic acid {3-[5-(2,6-dichloro-phenyl)-imidazol-1-yl]-1H-pyrazolo[3,4-d]thiazol-5-yl}-amide], in the assay on GTL16 cells, the IC50 was < 0.1 µM. Moreover, at T315I Ba/F3, the GI50 is 0.1 to 1 µM.
As to `O=C(Nc1nc2[nH]nc(-n3cncc3-c3ccccc3Cl)c2s1)C1CC1` [Cyclopropanecarboxylic acid {3-[5-(2-chloro-phenyl)-imidazol-1-yl]-1H-pyrazolo[3,4-d]thiazol-5-yl}-amide], the IC50 with GTL16 cells was in the range of 0.1 to 1 µM. Besides, the GI50 on T315I Ba/F3 fell in the range of 0.1 to 1 µM.
